Measured values: publication PMC10928712, “High Target Homology Does Not Guarantee Inhibition: Aminothiazoles Emerge as Inhibitors of Plasmodium falciparum” (ACS Infectious Diseases, 2024)
≈ marks a conversion by molar mass, not a printed value. Read-outs that look alike come from different tables or passages of the source.

Columns and labels:
[1] = tested on: P. falciparum 3D7; assay: Method I growth-inhibition assay (SYBR Green I, 96 h); format: cell-based; conditions: Plasmodium falciparum
Description: Nonlinear regression as implemented in GraphPad Prism 7.00 (log(inhibitor) vs response – variable slope (four parameters)) was used to fit the measured data to interpolate the IC50 value from the curve. No specific model was applied. Data was preprocessed by normalizing according to the following formula: […]
(§1) eq 1: Fluorescence data normalization [drawing 2] where y is the fluorescence signal in each well, yminimum is the background fluorescence, and ymaximum is the highest measured fluorescence signal in the untreated wells. Drug concentrations (in μM) were transformed to the log(10)of the values. Means of each independent experiment were plotted as individual values, and the SD of the mean from the means shown as error bars. […] In case of transgenic cell lines, the built-in comparison Akaike’s information criteria (AICc) method was applied to the Log IC50s of the different cell lines. The test calculates a percentage probability of the simpler model “Log IC50 is the same for datasets” being correct. The test for homoscedasticity was performed to confirm if no weighting of values was appropriate.

[2] = tested on: P. falciparum 3D7; assay: Method II growth-inhibition assay (PicoGreen, 3 days), 3D7; format: cell-based; conditions: Plasmodium falciparum, 3D7, method II
Description: (§2) Fidock (Columbia University).

[3] = tested on: P. falciparum NF54; assay: Method II growth-inhibition assay (PicoGreen, 3 days), NF54; format: cell-based; conditions: Plasmodium falciparum; chloroquine-sensitive NF54, method II
Description: as §2

[4] = tested on: P. falciparum 3D7; assay: Method III growth inhibition assay (HRP2-ELISA, 3 days), 3D7; format: cell-based, Plasmodium falciparum
[5] = tested on: P. falciparum Dd2; assay: Method III growth inhibition assay (HRP2-ELISA, 3 days), Dd2; format: cell-based, Plasmodium falciparum; conditions: Plasmodium falciparum, DD2, chloroquine-resistant Dd2, method III
[6] = tested on: Hep G2 cells; assay: Hep G2 viability assay (counter screen); format: cell-based, human; conditions: Homo sapiens, HepG2, 48 h, cytotoxicity, 48 h
Protocol: HepG2 cells (2 × 10^5 cells per well) were seeded in 24-well, flat-bottomed plates. Culturing of cells, incubations, and OD measurements were performed as described previously with small modifications.[58] 24 h after seeding the cells, the incubation was started by the addition of compounds in a final DMSO concentration of 1%. The metabolic activity of the living cell mass was determined after 48 h. At least three independent measurements were performed for each compound. The IC50 values were determined during logarithmic growth using GraphPad Prism software. All experiments were performed at least in triplicate, and data reported represent the mean ± SD.

[7] = Metabolic stability in human liver S9 fraction; format: in vitro ADME; conditions: 1 μM compound
Protocol: For the evaluation of combined phase I and phase II metabolic stability, the compound (1 μM) was incubated with 1 mg/mL pooled liver S9 fraction (XenoTech), 2 mM NADPH, 1 mM UDPGA, 10 mM MgCl2, 5 mM GSH, and 0.1 mM PAPS at 37 °C for 0, 5, 15, 30, and 60 min. The metabolic stabilities of testosterone (1 μM), verapamil (1 μM), and propranolol (1 μM) were determined in parallel to confirm the enzymatic activity of the S9 fraction. The incubation was stopped by precipitation of S9 enzymes with two volumes of cold acetonitrile containing internal standard (150 nM diphenhydramine). Samples were stored on ice for 10 min, and precipitated protein was removed by centrifugation (15 min, 4 °C, 4000 rpm). The concentration of the remaining test compound at the different time points was analyzed by LC-MS/MS (TSQ Quantum Access MAX, Thermo Fisher, Dreieich, Germany) and used to determine half-life (t1/2).

[8] = Kinetic solubility determination; format: physicochemical; conditions: PBS with 2% DMSO, aqueous buffer, kinetic from dmso stock, PBS buffer and 2% DMSO; read-out: Max. solubility
Protocol: The desired compounds were sequentially diluted in DMSO in a 96-well plate. 3 μL of each well was transferred into another 96-well plate and mixed with 147 μL of PBS. Plates were shaken for 5 min at 600 rpm at room temperature (r.t.), and the absorbance at 620 nm was measured. Absorbance values were normalized by blank subtraction and plotted using GraphPad Prism 8.4.2 (GraphPad Software, San Diego, California, USA). Solubility (S) was determined based on the First X value of AUC function using a threshold of 0.005.

[9] = tested on: P. falciparum 3D7-DXPS+; assay: Growth inhibition of PfDXPS overexpressing parasites (3D7-DXPS+); format: cell-based; conditions: Plasmodium falciparum, 3D7, read-out: PfDXPS IC50
Description: (§3) The open reading frame (ORF) encoding 1-deoxy-D-xylulose-5-phosphate synthase (PfDXPS; PF3D7_1337200) was amplified from genomic DNA isolated from unsynchronized P. falciparum 3D7 cultures using the Platinum PCR SuperMix High Fidelity (Invitrogen). Forward and reverse primers contained restriction sites for KpnI and AvrII in sense and antisense orientation, respectively (oligonucleotides pfDXPS-Kpn1-S: […]; pfDXPSmyc-Avr2-AS: […] ). PCR products and the transfection vector pARL1a-hDHFR PfARG-GFP were digested with KpnI and AvrII, purified (Gel extraction Kit and PCR purification kit; Qiagen), and cloned into the transfection vector yielding the construct for overexpression pARL-DXS-strep. XL 10-Gold E. coli ultracompetent cells (Agilent Technologies) were transformed with the generated construct to amplify the plasmid and colonies checked using restriction analysis and sequencing of the plasmid. Bacterial clones carrying the overexpression construct and the empty pARL1a vector (MOCK plasmid) were amplified in overnight cultures, isolated (Plasmid Maxi Kit; QIAGEN), and subsequently used to transfect P. falciparum 3D7 ring-stage parasites, as already described.[59] Briefly, 120 μg of plasmid DNA was centrifuged and air-dried, and the pellet was resuspended in TE buffer and cytomix reagent and mixed with the P. falciparum culture. Parasites were transfected using electroporation and selected with WR 99210. The generation and characterization of the PfTPK overexpression cell line has been reported before.[60]
(§4) P. falciparum cultures were treated as described in method I. For target specification toward PfTPK and PfDXPS, compounds were tested in comparison against overexpressing cell lines and the respective MOCK line containing only the transfected vector backbone. Parasite viability/proliferation was determined.

[10] = tested on: P. falciparum 3D7 MOCK cell line; assay: Growth inhibition of MOCK cell line (vector backbone only); format: cell-based; conditions: Plasmodium falciparum, 95% CI in brackets
Description: as §3, §4

[11] = tested on: P. falciparum 3D7-TPK+; assay: Growth inhibition of PfTPK overexpressing parasites (3D7-TPK+); format: cell-based; conditions: Plasmodium falciparum, 3D7, read-out: PfTPK IC50
Protocol: as §4, with “determined. Analysis of the IC50 values and interpretation of the curves was performed, as described in Section 4.1.2.44.” for “determined.”
as §1

[12] = biological target: M. tuberculosis DXPS; design: method as in PMID 36320685; conditions: Morrison inhibition constant, slow-, tight-binding; read-out: Ki* MtDXPS; cited from earlier work
[13] = tested on: Mycobacterium tuberculosis H37Rv strain; design: method as in PMID 36320685; conditions: cited from earlier work
[14] = tested on: blood-stage P. falciparum 3D7; conditions: Plasmodium falciparum
[15] = tested on: P. falciparum 3D7; design: method as in earlier work; conditions: Novartis HTS 2008; ref (21); cited from earlier work
[16] = tested on: P. falciparum W2; design: method as in earlier work; conditions: Novartis HTS 2008; ref (21); cited from earlier work
[17] = tested on: Huh7 (human hepatoma cells); conditions: cited from earlier work

ON=C(Cc1ccc(Cl)cc1)c1ccc(O)cc1O [compound 2]
IC50 ([1]; 3D7, read-out: IC50 3D7-I): 81 ± 3 µM
IC50 ([1]; 3D7, read-out: IC50 A [μM]): 74.2 µM
IC50 ([2]; 95% CI in brackets, read-out: IC50 B): 43.8 µM
IC50 ([2]; read-out: IC50 3D7-II): 42 ± 4 µM
IC50 [3]: 41 ± 10 µM
IC50 ([4]; 3D7, method III (HRP2 assay), drc package of R, read-out: IC50 P. falciparum 3D7 (method III)): 94 ± 8 µM
IC50 ([4]; Plasmodium falciparum, 3D7, 3D7, method III (HRP2 assay), drc package of R, read-out: IC50 P. falciparum 3D7 (method III)): 93.8 ± 8 µM
IC50 ([4]; Plasmodium falciparum, 3D7, 3D7, method III, nonlinear regression as in Figure 2, 95% CI in brackets, read-out: IC50 C): ~46 µM
IC50 [5]: 89 ± 31 µM
IC50 [6]: > 50 µM
t1/2 [7]: 29 ± 0.7 min
half-life at 1 μM ([7]; human, pooled liver S9 fraction): 28 min
solubility at 5 min [8]: 114 ± 6.7 µM (≈ 31.7 µg/mL)
IC50 [9]: 110 µM
IC50 ([10]; 3D7, read-out: MOCK IC50, MOCK compared with 3D7-DXPS+): 110 µM
IC50 ([10]; 3D7, read-out: MOCK IC50, MOCK compared with 3D7-TPK+, single measurement): 90.4 µM
IC50 [11]: 90.4 µM
Ki [12]: 0.27 ± 0.02 µM
MIC [13]: 10 µM (≈ 2.78 µg/mL)
IC50 [14]: 44 to 74 µM

COC(C(=NO)c1ccc(Cl)cc1)c1ccccc1 (centres unmarked) [CHEMBL581471]
EC50 [15]: > 0.912 µM
EC50 [16]: > 1.61 µM
Huh7 inhibition [17]: > 10 µM
